US8084621B2, “3-Pyrrolo[b]cyclohexylene-2-dihydroindolinone derivatives and uses thereof” (Jiangsu Simcere Pharmaceutical R&D Co. Ltd., priority 2006, dated 2011)

Columns and labels:
Type in all cases: cell-based
[1] = test system: Human Colon Cancer Cell Line (CACO-2); assay: Tumor cell proliferation assay (MTT), CACO-2; conditions: concentration of 10^−5 mol/L, preliminary screening, 72 hours, read-out: Inhibition rate % CACO-2
Text: (§1) The assay used generally is the blue tetrazolium bromide (MTT) method. […] The amount of formazan can be detected by the microplate reader through the absorption value at 570 nm. The amount of formazan product generated is proportional to the number of living cells in the sample, so the OD value may reflect the number of living cells and the ability of a test drug to inhibit or kill cells. The MTT assay may be used in determining the ability of different compounds of the present invention to inhibit one or more cancer cells proliferation. Similar assays can be designed along the same lines for any cancer cell using techniques well known in the art.
(§2) The assay used generally is the blue tetrazolium bromide (MTT) method. […] Intracellular purple formazan salt crystals can be solved in DMSO and the absorption value at 570 nm is detected by the microplate reader, then the number of living cells can be detected indirectly. So MTT assay may be used to determine the ability of a compound of the present invention to inhibit cell proliferation. Similar assays can be designed along the same lines for any cancer cell using techniques well known in the art.
2.2.10 Human Colon Cancer Cell Line (CACO-2)
The cell of 2.2.10 cultured in DMEM/High glucose medium containing 12% fetal bovine serum in the condition of 37° C., 5% CO2.
(§3) 2.3.1 Cell seeding: Trypsinize the cell by 0.05% trypsin-EDTA and add RPMI 1640 medium (DMEM or 5A) containing 12% calf serum. Count the number, then dilute to 1.67×10^4/ml. Add 180 ul/well to the 96 well plate (3000 cells/well).
(§4) 2.3.2 Culture: cells are incubated for 24 hours at 37° C. under 5% CO2.
(§5) 2.3.3 Preliminary screening: The compounds are firstly diluted to 0.1 mol/L with DMSO, and then diluted to three concentrations of 10^−5 mol/L, 10^−6 mol/L and 10^−7 mol/L. Add 20 ul test compounds to the 96 well plate and incubate for 72 hours. Each group has three parallel wells and all experiments repeat three times. Each inhibition ratio is calculated, then an average value of three times is taken as the measured value. 2.3.4 Staining 2.3.4.1 Attached cell: add 20 ul/well MTT to the 96-well plates; incubate for 4 hours in the incubator. Pour out the culture medium in the well and add 100 ul/well DMSO. Shake the plate for 5 min. 2.3.4.2 Suspension cell: add 20 ul/well MTT to the 96-well plates; incubate for 4 hours in the incubator. Add 50 ul/well 20% SDS and incubate for overnight in the incubator. 2.3.5 Reading the plates: read the absorbance A570-A630 with the Infinite M200 microtiter plate reader. Calculate the inhibition ratio of the test compounds. 2.3.6 Secondary screening: the compounds whose inhibition ratio is greater than 50% at the concentrations of 10^−5 mol/L in the preliminary screening will be picked out for Secondary screening. Dilute these compounds to ten concentrations: 10^−5 mol/L, 0.5×10^−5 mol/L, 10^−6 mol/L, 0.8×10^−6 mol/L, 0.6×10^−6 mol/L, 0.4×10^−6 mol/L, 0.2×10^−6 mol/L, 10^−7 mol/L, 0.8×10^−7 mol/L and 0.4×10^−7 mol/L. Add 20 ul test compound solution to the 96 well plate and incubate for 48 hours. Each group has three parallel wells and all experiments repeat for three times. Read the plates and calculate the inhibition ratio according to the preliminary screening method. 2.3.7 Calculate the Inhibition Ratio of Cell Proliferation and the IC50
(§6) According to the inhibition ratio of cell proliferation at the different concentrations of the compound, inhibition ratio of 50% of the test compound is calculated through the logarithm of the concentration of the compound with the Logit [I] linear regression, and an average value of three times is taken as the measured value of a sample.

[2] = test system: Human Bladder Cancer Cell Line (T24); assay: Tumor cell proliferation assay (MTT), T24; conditions: for inhibition at 10 µM: concentration of 10^−5 mol/L, preliminary screening, 72 hours, read-out: Inhibition rate % T24; for IC50: secondary screening, 48 hours
Text: as §1, §2
2.2.7 Human Bladder Cancer Cell Line (T24);
The cells of 2.2.6, 2.2.7 cultured in RPMI 1640 medium containing 12% fetal bovine serum in the condition of 37° C., 5% CO2.
as §3, §4, §5, §6

[3] = test system: Human Colon Cancer Cell Line (HCT 116); assay: Tumor cell proliferation assay (MTT), HCT116; conditions: concentration of 10^−5 mol/L, preliminary screening, 72 hours, read-out: Inhibition rate % HCT116
Text: as §1, §2
2.2.12 Human Colon Cancer Cell Line (HCT 116);
The cells of 2.2.11, 2.2.12, 2.2.13 were cultured in MC COYS 5-A medium containing 12% fetal bovine serum in the condition of 37° C., 5% CO2.
as §3, §4, §5, §6

[4] = test system: Human Hepatocellular Carcinoma Cell Line (HEPG2); assay: Tumor cell proliferation assay (MTT), HEPG2; conditions: for inhibition at 10 µM: concentration of 10^−5 mol/L, preliminary screening, 72 hours, read-out: Inhibition rate % HEPG2; for IC50: secondary screening, 48 hours
Text: as §1, §2
2.2.8 Human Hepatocellular Carcinoma Cell Line (HEPG2);
(§7) The cells of 2.2.8, 2.2.9 cultured in DMEM/High glucose medium containing 12% calf serum in the condition of 37° C., 5% CO2.
as §3, §4, §5, §6

[5] = test system: Human Breast Cancer Cell Line (MCF-7); assay: Tumor cell proliferation assay (MTT), MCF-7; conditions: for inhibition at 10 µM: MCF7, concentration of 10^−5 mol/L, preliminary screening, 72 hours, read-out: Inhibition rate % MCF-7; for IC50: MCF7, secondary screening, 48 hours
Text: as §1, §2
2.2.9 Human Breast Cancer Cell Line (MCF-7);
as §7, §3, §4, §5, §6

[6] = test system: Human Leukemia Line (K562); assay: Tumor cell proliferation assay (MTT), K562; conditions: for inhibition at 10 µM: concentration of 10^−5 mol/L, preliminary screening, 72 hours, read-out: Inhibition rate % K562; for IC50: secondary screening, 48 hours
Text: as §1, §2
2.2.3 Human Leukemia Line (K562)
The cells of the 2.2.1, 2.2.2, 2.2.3, 2.2.4, 2.2.5 cultured with RPMI 1640 containing 12% calf serum in the condition of 37° C., 5% CO2.
as §3, §4, §5, §6

Row | IC50 [5] | IC50 [2] | IC50 [6] | IC50 [4] | Structure (SMILES) | inhibition at 10 µM [1] | inhibition at 10 µM [2] | inhibition at 10 µM [3] | inhibition at 10 µM [4] | inhibition at 10 µM [5] | inhibition at 10 µM [6]
1 |  |  |  |  | Cc1[nH]c2c(c1C(=O)NCCO)CCC/C2=C1/C(=O)Nc2ccc(F)cc21 [I-9, N-(2-hydroxyethyl)-2-methyl-7-[1,2-dihydro-5-fluoro-2-oxo-3H-indol-(Z)-3-ylidene]-4,5,6,7-tetrahydro-1H-indole-3-carboxamide] | 18% | 56.1% | 61.9% | 47.5% |  | 
2 | 7.88 µM | 3.31 µM | 3.51 µM | 7.27 µM | CCN(CC)CCNC(=O)c1c(C)[nH]c2c1CCC/C2=C1/C(=O)Nc2ccc(F)cc21 [I-2, N-(2-(diethylamino)ethyl)-2-methyl-7-[1,2-dihydro-5-fluoro-2-oxo-3H-indol-(Z)-3-ylidene]-4,5,6,7-tetrahydro-1H-indole-3-carboxamide] | 43% | 81.4% | 99.4% | 64% | 55.4% | 95.3%
3 | 7.01 µM | 2.64 µM | 0.93 µM | 7.22 µM | Cc1[nH]c2c(c1C(=O)NCC(O)CN1CCCCC1)CCC/C2=C1/C(=O)Nc2ccc(F)cc21 (stereo not shown) [I-74, N-(2-hydroxy-3-(piperidin-1-yl)propyl)-2-methyl-7-[1,2-dihydro-5-fluoro-2-oxo-3H-indol-(Z)-3-ylidene]-4,5,6,7-tetrahydro-1H-indole-3-carboxamide] | 83.1% | 98.7% | 99.9% | 84.9% | 70.7% | 95.1%
4 |  | 1.83 µM |  | 3.14 µM | CCN(CC)CCNC(=O)c1c(C)[nH]c2c1CCC/C2=C1/C(=O)Nc2ccc(Cl)cc21 [I-3, N-(2-(diethylamino)ethyl)-2-methyl-7-[1,2-dihydro-5-chloro-2-oxo-3H-indol-(Z)-3-ylidene]-4,5,6,7-tetrahydro-1H-indole-3-carboxamide] |  | 98.1% |  | 98.2% |  | 
5 |  |  |  |  | Cc1[nH]c2c(c1C(=O)NCCO)CCC/C2=C1/C(=O)Nc2ccccc21 [I-8, N-(2-hydroxyethyl)-2-methyl-7-[1,2-dihydro-2-oxo-3H-indol-(Z)-3-ylidene]-4,5,6,7-tetrahydro-1H-indole-3-carboxamide] | 17% | 64.6% | 79.1% | 53.8% | 25.2% | 39.4%
6 |  |  |  |  | Cc1[nH]c2c(c1C(=O)N1CCN(C)CC1)CCC/C2=C1/C(=O)Nc2ccc(F)cc21 [I-14, 2-methyl-3-(4-methylpiperazine-1-carbonyl)-7-[1,2-dihydro-5-fluoro-2-oxo-3H-indol-(Z)-3-ylidene]-4,5,6,7-tetrahydro-1H-indole] | 2.36% | 34.4% | 22.1% | 30.4% |  | 
7 |  | 5.9 µM | 0.72 µM | 7.36 µM | Cc1[nH]c2c(c1C(=O)NCC(O)CN1CCCCC1)CCC/C2=C1/C(=O)Nc2ccccc21 (stereo not shown) [I-73, N-(2-hydroxy-3-(piperidin-1-yl)propyl)-2-methyl-7-[1,2-dihydro-2-oxo-3H-indol-(Z)-3-ylidene]-4,5,6,7-tetrahydro-1H-indole-3-carboxamide] | 44.4% | 88.4% | 98.7% | 59.3% | 43.4% | 94.8%
8 | 6.94 µM | 3.56 µM | 2.94 µM | 7.73 µM | CCN(CC)CCNC(=O)c1c(C)[nH]c2c1CCC/C2=C1/C(=O)Nc2ccccc21 [I-5, N-(2-(diethylamino)ethyl)-2-methyl-7-[1,2-dihydro-2-oxo-3H-indol-(Z)-3-ylidene]-4,5,6,7-tetrahydro-1H-indole-3-carboxamide] | 44.1% | 74.5% | 99.9% | 64.6% | 50.5% | 93.3%
9 |  | 3.04 µM |  | 3.15 µM | CCN(CC)CC(O)CNC(=O)c1c(C)[nH]c2c1CCC/C2=C1/C(=O)Nc2ccccc21 (stereo not shown) [I-63, N-(3-(diethylamino)-2-hydroxypropyl)-2-methyl-7-[1,2-dihydro-2-oxo-3H-indol-(Z)-3-ylidene]-4,5,6,7-tetrahydro-1H-indole-3-carboxamide] |  | 99% |  | 100% |  | 
